# Reference: patent US9102638B2, “Amidobenzothiazoles and process for the preparation thereof” (COUNCIL OF SCIENTIFIC & INDUSTRIAL RESEARCH, priority 2011, dated 2015)
# Experiments:
# Type in all cases: cell-based
# BT-549 = assay: In vitro cytotoxicity, NCI screen: BT-549 (Breast); details: Homo sapiens, read-out: GI50 values (μM conc.)
# Experimental: (§1) The in vitro anticancer activity studies for these amidobenzothiazoles were carried out at the National Cancer Institute, Maryland, USA.
# (§2) The amidobenzothiazoles have been tested against sixty human tumor cell lines derived from nine cancer types (leukemia cancer cell line, non-small cell lung cancer cell line, colon cancer cell line, CNS cancer cell line, melanoma cancer cell line, ovarian cancer cell line, renal cancer cell line, prostate cancer cell line and breast cancer cell lines). For these compounds results are expressed in GI50 values of that particular cancer cell at micro molar (μM) concentration as per NCI protocol.
# NCI/ADR-RES = assay: In vitro cytotoxicity, NCI screen: NCI/ADR-RES (Ovarian); details: Homo sapiens, Ovarian panel, NCI protocol, read-out: GI50 values (μM conc.)
# Experimental: as §1, §2
# SNB-19 = assay: In vitro cytotoxicity, NCI screen: SNB-19 (CNS); details: Homo sapiens; SNB-19, CNS panel, NCI protocol; read-out: GI50 values (μM conc.)
# Experimental: as §1, §2
# HCC-2998 = assay: In vitro cytotoxicity, NCI screen: HCC-2998 (Colon); details: Homo sapiens; HCC-2998, Colon panel, NCI protocol; read-out: GI50 values (μM conc.)
# Experimental: as §1, §2
# SK-MEL-28 = assay: In vitro cytotoxicity, NCI screen: SK-MEL-28 (Melanoma); details: Homo sapiens; SK-MEL-28, Melanoma panel, NCI protocol; read-out: GI50 values (μM conc.)
# Experimental: as §1, §2
# TK-10 = assay: In vitro cytotoxicity, NCI screen: TK-10 (Renal); details: Homo sapiens; TK-10, Renal panel, NCI protocol; read-out: GI50 values (μM conc.)
# Experimental: as §1, §2
# EKVX = assay: In vitro cytotoxicity, NCI screen: EKVX (Non-small cell lung); details: Homo sapiens, Non-small cell lung panel, NCI protocol, read-out: GI50 values (μM conc.)
# Experimental: as §1, §2
# SK-MEL-2 = assay: In vitro cytotoxicity, NCI screen: SK-MEL-2 (Melanoma); details: Homo sapiens; SK-MEL-2, Melanoma panel, NCI protocol; read-out: GI50 values (μM conc.)
# Experimental: as §1, §2
# CAKI-1 = assay: In vitro cytotoxicity, NCI screen: CAKI-1 (Renal); details: Homo sapiens; CAKI-1, Renal panel, NCI protocol; read-out: GI50 values (μM conc.)
# Experimental: as §1, §2
# PC-3 = assay: In vitro cytotoxicity, NCI screen: PC-3 (Prostate); details: Homo sapiens; PC-3, Prostate panel, NCI protocol; read-out: GI50 values (μM conc.)
# Experimental: as §1, §2
# UO-31 = assay: In vitro cytotoxicity, NCI screen: UO-31 (Renal); details: Homo sapiens; UO-31, Renal panel, NCI protocol; read-out: GI50 values (μM conc.)
# Experimental: as §1, §2
# NCI-H460 = assay: In vitro cytotoxicity, NCI screen: NCI-H460 (Non-small cell lung); details: Homo sapiens; NCI-H460, Non-small cell lung panel, NCI protocol; read-out: GI50 values (μM conc.)
# Experimental: as §1, §2
# OVCAR-4 = assay: In vitro cytotoxicity, NCI screen: OVCAR-4 (Ovarian); details: Homo sapiens; OVCAR-4, Ovarian panel, NCI protocol; read-out: GI50 values (μM conc.)
# Experimental: as §1, §2
# SK-OV-3 = assay: In vitro cytotoxicity, NCI screen: SK-OV-3 (Ovarian); details: Homo sapiens; SK-OV-3, Ovarian panel, NCI protocol; read-out: GI50 values (μM conc.)
# Experimental: as §1, §2
# KM12 = assay: In vitro cytotoxicity, NCI screen: KM12 (Colon); details: Homo sapiens; KM12, Colon panel, NCI protocol; read-out: GI50 values (μM conc.)
# Experimental: as §1, §2
# LOX IMVI = assay: In vitro cytotoxicity, NCI screen: LOX IMVI (Melanoma); details: Homo sapiens, Melanoma panel, NCI protocol, read-out: GI50 values (μM conc.)
# Experimental: as §1, §2
# SK-MEL-5 = assay: In vitro cytotoxicity, NCI screen: SK-MEL-5 (Melanoma); details: Homo sapiens; SK-MEL-5, Melanoma panel, NCI protocol; read-out: GI50 values (μM conc.)
# Experimental: as §1, §2
# DU-145 = assay: In vitro cytotoxicity, NCI screen: DU-145 (Prostate); details: Homo sapiens, read-out: GI50 values (μM conc.)
# Experimental: as §1, §2
# NCI-H226 = assay: In vitro cytotoxicity, NCI screen: NCI-H226 (Non-small cell lung); details: Homo sapiens; NCI-H226, Non-small cell lung panel, NCI protocol; read-out: GI50 values (μM conc.)
# Experimental: as §1, §2
# HCT-116 = assay: In vitro cytotoxicity, NCI screen: HCT-116 (Colon); details: Homo sapiens, read-out: GI50 values (μM conc.)
# Experimental: as §1, §2
# NCI-H522 = assay: In vitro cytotoxicity, NCI screen: NCI-H522 (Non-small cell lung); details: Homo sapiens; NCI-H522, Non-small cell lung panel, NCI protocol; read-out: GI50 values (μM conc.)
# Experimental: as §1, §2
# U251 = assay: In vitro cytotoxicity, NCI screen: U251 (CNS); details: Homo sapiens, U-251; U251, CNS panel, NCI protocol; read-out: GI50 values (μM conc.)
# Experimental: as §1, §2
# T-47D = assay: In vitro cytotoxicity, NCI screen: T-47D (Breast); details: Homo sapiens, T47D, Breast panel, NCI protocol, read-out: GI50 values (μM conc.)
# Experimental: as §1, §2
# HS 578T = assay: In vitro cytotoxicity, NCI screen: HS 578T (Breast); details: Homo sapiens, read-out: GI50 values (μM conc.)
# Experimental: as §1, §2
# OVCAR-8 = assay: In vitro cytotoxicity, NCI screen: OVCAR-8 (Ovarian); details: Homo sapiens; OVCAR-8, Ovarian panel, NCI protocol; read-out: GI50 values (μM conc.)
# Experimental: as §1, §2
# HOP-62 = assay: In vitro cytotoxicity, NCI screen: HOP-62 (Non-small cell lung); details: Homo sapiens; HOP-62, Non-small cell lung panel, NCI protocol; read-out: GI50 values (μM conc.)
# Experimental: as §1, §2
# OVCAR-3 = assay: In vitro cytotoxicity, NCI screen: OVCAR-3 (Ovarian); details: Homo sapiens; OVCAR-3, Ovarian panel, NCI protocol; read-out: GI50 values (μM conc.)
# Experimental: as §1, §2
# MDA-MB-468 = assay: In vitro cytotoxicity, NCI screen: MDA-MB-468 (Breast); details: Homo sapiens, read-out: GI50 values (μM conc.)
# Experimental: as §1, §2
# CNS cancer cell lines = assay: In vitro activity against CNS cancer cell lines (panel range); details: Homo sapiens, read-out: GI50 values, range over the listed compounds and the panel
# Experimental: as §1, §2
compound,measurement,setting,value
"COc1ccc(/C=C/C(=O)c2cc(OC)c(OC)c(OC)c2)cc1OCC(=O)Nc1nc2ccc(OC(F)(F)F)cc2s1 [Compound 9j, N1-(6-(trifluoromethoxy)-1,3-benzothiazol-2-yl)-2-{2-methoxy-5-[(E)-3-oxo-3-(3,4,5-trimethoxyphenyl)-1-propenyl]phenoxy}acetamide]",GI50,BT-549,2.71 µM
same,GI50,NCI/ADR-RES,0.49 µM
same,GI50,SNB-19,1.58 µM
same,GI50,HCC-2998,6.18 µM
same,GI50,SK-MEL-28,3.31 µM
same,GI50,TK-10,2.08 µM
same,GI50,EKVX,5.11 µM
same,GI50,SK-MEL-2,4.97 µM
same,GI50,CAKI-1,2.2 µM
same,GI50,PC-3,3.14 µM
same,GI50,UO-31,1.61 µM
same,GI50,NCI-H460,2.43 µM
same,GI50,OVCAR-4,2.07 µM
same,GI50,SK-OV-3,2.16 µM
same,GI50,KM12,1.51 µM
same,GI50,LOX IMVI,0.47 µM
same,GI50,SK-MEL-5,2.03 µM
same,GI50,DU-145,1.56 µM
same,GI50,NCI-H226,3.35 µM
same,GI50,HCT-116,1.43 µM
same,GI50,NCI-H522,0.67 µM
same,GI50,U251,0.7 µM
same,GI50,T-47D,3.08 µM
same,GI50,HS 578T,3.08 µM
same,GI50,OVCAR-8,1.54 µM
same,GI50,HOP-62,2.12 µM
same,GI50,OVCAR-3,1.52 µM
same,GI50,MDA-MB-468,3.52 µM
same,GI50,CNS cancer cell lines,0.045 to 18.8 µM
